Publication PMC6451745, “Development and dosimetry of ^203Pb/^212Pb-labelled PSMA ligands: bringing “the lead” into PSMA-targeted alpha therapy?” (European Journal of Nuclear Medicine and Molecular Imaging, 2019)

Key:
PSMA = target: T1, PSMA (Homo sapiens, UniProt Q04609); assay: Competitive binding assay on C4-2 cells; conditions: reference ^68Ga-labelled PSMA-HBED-CC dimer (PSMA-10), mean ± SD
T1 construct: host or cells: C4-2 cells (LNCaP subline)
Procedure: (§1) In vitro and in vivo experiments were performed using the PSMA-positive C4-2 cell line, a subline of the LNCaP (lymph node carcinoma of the prostate) cell line (CRL-3314; American Type Culture Collection). C4-2 cells were cultivated in RPMI-1640 (PAN Biotech) supplemented with 10% fetal calf serum and stable glutamine (PAN Biotech). Cells were grown at 37 °C and incubated in humidified air equilibrated with 5% CO2.
A MultiScreenHTS-DV filter plate was incubated at room temperature with 100 μl phosphate-buffered saline (PBS) containing 1% bovine serum albumin (BSA) per well for 30 min. After removal of the PBS/BSA solution, 1 × 10^5 C4-2 cells in Opti-MEM were added to each well. All nonlabelled compounds were dissolved in 300 μl Opti-MEM at the following concentrations: 0, 0.5, 1, 2.5, 5, 10, 25, 50, 100, 500, 1,000 and 5,000 nM. Subsequently, 3 μl of the radiolabelled compound was added, and 50 μl of this mixture was taken to obtain a solution containing 0.75 nM of the radiolabelled ligand. After 45 min incubation at 37 °C, the cells were washed twice with PBS, the radioactivity accumulated in the cells was collected, and the remaining radioactivity was measured in a gamma counter. The inhibitory potency was determined using ^68Ga-labelled PSMA-HBED-CC dimer (i.e. PSMA-10) as the reference. The 50% inhibitory concentration was calculated using a nonlinear regression algorithm (GraphPad Prism 5.01 software). The experiments were performed in quadruplicate.

C4-2 cells = assay: Determination of specific internalization ratio; assay type: cell-based
Procedure: as §1
For determination of the specific internalization ratio, 24-well plates were incubated for 20 min with 0.1% poly-L-lysine in PBS at room temperature and washed once with PBS. In the next step, 1 ml RPMI containing 1 × 10^5 C4-2 cells was added to each well and incubated overnight. The conditions during the experiment for each compound were: incubation at 37 °C or 4 °C with or without receptor blocking via 2-(phosphonomethyl)pentanedioic acid (2-PMPA; Axxora) at a final concentration of 500 μM. The cells were then incubated with 250 μl of a 30 nM solution of ^203Pb-labelled compound. The plates were incubated either for 45 min in a water bath at 37 °C or on ice at 4 °C. The cells were then washed three times with 1 ml ice-cold PBS and incubated with 0.5 ml glycine (50 mM in HCl, pH 2.8) for 5 min. After an additional washing step with 1 ml ice-cold PBS, the cells were lysed with 0.5 ml 0.3 M NaOH and collected, and the radioactivity was measured with a gamma counter for 1 min. The specific cellular uptake was determined as the percentage of initially added radioactivity bound per 10^6 cells (%IA/10^6 cells) by subtraction of the respective uptake under blocking conditions. All experiments were performed in triplicate.

C4-2 tumour-bearing mice = assay: Planar scintigraphic imaging in tumour-bearing mice; assay type: in vivo; conditions: ^203Pb-labelled, 1 h after injection, Fig. 3
Procedure: The in vivo experiments were carried out in accordance with the laws on animal welfare of the Federal Republic of Germany. For imaging and biodistribution studies, male BALB/c nu/nu mice (20–25 g; Charles River) bearing C4-2 tumour xenografts were used. The mice were inoculated subcutaneously in the right trunk with 5 × 10^6 C4-2 cells in 50% Matrigel in Opti-MEM (1×). For small-animal imaging the mice were anaesthetized with 2% sevoflurane, and then 0.1 nmol (1.0 MBq) of the respective ^203Pb ligand was injected into a tail vein. Serial planar scans were performed using a Gamma Imager-sct (Biospace Lab, Paris, France) with a parallel collimator (35 mm/1.8 mm/0.2 mm) after 10 min, 1 h, 4 h and 24 h. Based on the imaging results, compound CA012 was chosen for biodistribution studies. Experiments were performed in triplicate. For biodistribution, 0.025 nmol (1 MBq) of labelled compound per mouse was administered by injection into a tail vein. After 10 min, 1 h, 4 h and 24 h the mice were killed, the organs were dissected and weighed, and activity was measured using a gamma counter (Packard Cobra Auto-gamma). The organ uptakes were calculated as the percentage of the injected dose per gram of tissue (%ID/g).

[1] = tested on: patients with castration-resistant metastasized prostate cancer; assay: Dosimetry extrapolated from ^203Pb-CA012 to ^212Pb-CA012
Procedure: Images were loaded into the QDOSE dosimetry software suite (ABX-CRO, Dresden) and coregistered. […] These ROIs were used to determine time–activity curves (TAC) for each organ, tumours and the total body. The first time-point (before voiding) of the uncorrected geometric mean images was used to calibrate the ROI counts in relation to the injected activity. The red marrow TAC was calculated from venous blood (six samples per patient) using established model assumptions [10, 11].
Biexponential curve fitting was applied to all organ TACs (with the exception of a few tumours and glands which had to be fitted monoexponentially). The accumulated activity was integrated assuming a linear increase from time 0 to the first measured time-point, numerically from the first to the last measured time-point using trapezoidal approximations and from the last measured time-point to infinity using the fit function. The activity in the remainder of the body was calculated by subtracting the activity of all source organs from that of the total body.
The residence times in the kidneys, liver, spleen, urinary bladder contents, red marrow and remainder of the body were exported for dose calculations in OLINDA 1.1, using the organ masses of the adult phantom [12].
OLINDA calculations were performed for all nuclides individually. […] Tumour and salivary gland volumes were measured individually based on CT segmentation and their absorbed doses were approximated using a power function interpolating the spherical model estimates [15].

[2] = ^203Pb-labelled compound 30 nM, 45 min, 2-PMPA blocking subtracted, mean ± SD n = 3
[3] = projected from therapeutic activity of 100 MBq
[4] = therapeutic ^212Pb incl. daughter nuclides, extrapolated from ^203Pb, RBE 5 for alpha, OLINDA male adult phantom

T1 sequence (Q04609 whole entry): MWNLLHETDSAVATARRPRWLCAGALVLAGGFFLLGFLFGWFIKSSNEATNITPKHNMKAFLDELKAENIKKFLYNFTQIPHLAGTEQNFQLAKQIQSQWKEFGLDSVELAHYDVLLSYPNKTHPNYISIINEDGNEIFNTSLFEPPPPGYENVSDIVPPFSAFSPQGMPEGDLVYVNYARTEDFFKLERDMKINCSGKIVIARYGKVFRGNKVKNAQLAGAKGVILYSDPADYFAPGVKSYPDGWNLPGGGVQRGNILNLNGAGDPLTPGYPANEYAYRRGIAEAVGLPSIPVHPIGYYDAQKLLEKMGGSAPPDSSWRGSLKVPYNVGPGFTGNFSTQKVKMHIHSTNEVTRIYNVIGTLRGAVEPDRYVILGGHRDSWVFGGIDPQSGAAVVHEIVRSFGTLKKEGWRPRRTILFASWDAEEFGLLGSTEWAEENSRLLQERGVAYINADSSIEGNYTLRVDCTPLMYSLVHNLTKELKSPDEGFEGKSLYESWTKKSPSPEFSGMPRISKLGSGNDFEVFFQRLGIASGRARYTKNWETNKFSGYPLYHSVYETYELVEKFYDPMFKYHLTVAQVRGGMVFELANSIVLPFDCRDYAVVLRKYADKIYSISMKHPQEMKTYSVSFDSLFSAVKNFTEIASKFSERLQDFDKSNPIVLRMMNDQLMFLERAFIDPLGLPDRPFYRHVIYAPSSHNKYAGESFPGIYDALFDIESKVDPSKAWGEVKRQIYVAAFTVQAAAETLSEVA

Compound `NC(=O)CN1CCN(CC(N)=O)CCN(CC(N)=O)C(Cc2ccc(NC(=S)NCC3CCC(C(=O)NC(Cc4ccc5ccccc5c4)C(=O)NCCCC[C@H](NC(=O)N[C@@H](CCC(=O)O)C(=O)O)C(=O)O)CC3)cc2)CN(CC(N)=O)CC1` (stereo partly drawn) [CA009] has a Ki (PSMA) of 15.3 ± 3.1 nM, a specific ligand-induced internalization (C4-2 cells) of 27.4 ± 2.4 %IA/10^6 cells and a Specific cell surface (C4-2 cells; [2]) of 106.5 ± 2.8 %IA/10^6 cells. For the same compound, the “Specific lysate (specific internalization)” value (C4-2 cells; [2]) was 27.4 ± 2.4 %IA/10^6 cells.

`NC(=O)CN1CCN(CC(N)=O)CCN(CC(N)=O)C(Cc2ccc(NC(=S)NC(Cc3ccc4ccccc4c3)C(=O)NCCCC[C@H](NC(=O)N[C@@H](CCC(=O)O)C(=O)O)C(=O)O)cc2)CN(CC(N)=O)CC1` (stereo partly drawn) [CA008] was tested, and the “tumour uptake in mice (planar scintigraphy)” value (C4-2 tumour-bearing mice) was “low tumour uptake” and the Ki (PSMA) was 28.8 ± 3.4 nM.

For `NC(=O)CN1CCN(CC(N)=O)CCN(CC(=O)NC[C@H]2CC[C@H](C(=O)N[C@@H](Cc3ccc4ccccc4c3)C(=O)NCCCC[C@H](NC(=O)N[C@@H](CCC(=O)O)C(=O)O)C(=O)O)CC2)CCN(CC(N)=O)CC1.[212Pb+2]` [^212Pb-CA012], the “cumulative dose limited by the kidneys (dose-limiting organ)” value ([1]; preliminary approximation) was 400–600 MBq, the “Equivalent dose, Liver” value [1, 3] was 0.7 SvRBE5 and the “Equivalent dose, other organs” value [1, 3] was 0.2 SvRBE5. For the same compound, the “Tissue equivalent dose, Kidneys” value [1, 3] was 4.9 SvRBE5, the “Tissue equivalent dose, Red marrow” value ([1]; projected from therapeutic activity of 100 MBq, instant decay of daughter nuclides assumed) was 0.6 SvRBE5 and the Effective dose [1, 4] was 415.1 mSv RBE5/100 Mbq. For the same compound, the Effective dose equivalent [1, 4] was 748.9 mSv RBE5/100 Mbq, the “Equivalent dose, Adrenals” value [1, 4] was 193.1 mSv RBE5/100 Mbq and the “Equivalent dose, Brain” value [1, 4] was 190.0 mSv RBE5/100 Mbq. The “Equivalent dose, Breasts” value [1, 4] was 190.0 mSv RBE5/100 Mbq, the “Equivalent dose, Gallbladder” value [1, 4] was 192.9 mSv RBE5/100 Mbq and the “Equivalent dose, Heart” value [1, 4] was 191.3 mSv RBE5/100 Mbq. For the same compound, the “Equivalent dose, Kidneys” value [1, 4] was 4906.6 mSv RBE5/100 Mbq, the “Equivalent dose, Liver” value [1, 4] was 703.3 mSv RBE5/100 Mbq and the “Equivalent dose, Lower large intestine” value [1, 4] was 191.3 mSv RBE5/100 Mbq. The “Equivalent dose, Lungs” value [1, 4] was 190.9 mSv RBE5/100 Mbq, the “Equivalent dose, Muscle” value [1, 4] was 190.7 mSv RBE5/100 Mbq and the “Equivalent dose, Osteogenic cells” value [1, 4] was 3796.4 mSv RBE5/100 Mbq. For the same compound, the “Equivalent dose, Pancreas” value [1, 4] was 192.9 mSv RBE5/100 Mbq, the “Equivalent dose, Red marrow” value [1, 4] was 615.1 mSv RBE5/100 Mbq and the “Equivalent dose, Skin” value [1, 4] was 189.8 mSv RBE5/100 Mbq. For the same compound, the “Equivalent dose, Small intestine” value [1, 4] was 191.8 mSv RBE5/100 Mbq, the “Equivalent dose, Spleen” value [1, 4] was 1606.7 mSv RBE5/100 Mbq and the “Equivalent dose, Stomach” value [1, 4] was 191.8 mSv RBE5/100 Mbq. The “Equivalent dose, Testes” value [1, 4] was 190.4 mSv RBE5/100 Mbq, the “Equivalent dose, Thymus” value [1, 4] was 190.7 mSv RBE5/100 Mbq and the “Equivalent dose, Thyroid” value [1, 4] was 190.5 mSv RBE5/100 Mbq. The “Equivalent dose, Total body” value [1, 4] was 237.8 mSv RBE5/100 Mbq, the “Equivalent dose, Upper large intestine” value [1, 4] was 191.8 mSv RBE5/100 Mbq and the “Equivalent dose, Urinary bladder” value [1, 4] was 200.2 mSv RBE5/100 Mbq.
